The results in this text go back to patent US20140120083A1, “TREATMENT OF CANCERS USING PI3 KINASE ISOFORM MODULATORS” (INFINITY PHARMACEUTICALS, INC., priority 2012, published 2014).

The structures appear in SMILES notation.

Holding throughout (type): biochemical
The target of assay [1] is T1, PI3K α (Homo sapiens, UniProt P42336).
T1 construct: purchased Upstate
The experiment in a line: In vitro IC50, PI3K α. The text has this: (§1) An exemplary system is PI 3-Kinase (human) HTRF™ Assay from Upstate.

Assay [2] concerns the target PI3K δ (Homo sapiens, UniProt O00329). Kind of assay: In vitro IC50, PI3K δ. Details: purchased Upstate.
Text: as §1

In assay [3] the target is T2, PI3K γ (Homo sapiens, UniProt P48736).
T2 construct: purchased Sigma
The experiment in a line: In vitro IC50, PI3K γ.
Text: as §1

In assay [4] the target is PI3K β (Homo sapiens, UniProt P42338). The experiment in a line: In vitro IC50, PI3K β.
Text: as §1

Sequence of PI3K δ (O00329 whole entry): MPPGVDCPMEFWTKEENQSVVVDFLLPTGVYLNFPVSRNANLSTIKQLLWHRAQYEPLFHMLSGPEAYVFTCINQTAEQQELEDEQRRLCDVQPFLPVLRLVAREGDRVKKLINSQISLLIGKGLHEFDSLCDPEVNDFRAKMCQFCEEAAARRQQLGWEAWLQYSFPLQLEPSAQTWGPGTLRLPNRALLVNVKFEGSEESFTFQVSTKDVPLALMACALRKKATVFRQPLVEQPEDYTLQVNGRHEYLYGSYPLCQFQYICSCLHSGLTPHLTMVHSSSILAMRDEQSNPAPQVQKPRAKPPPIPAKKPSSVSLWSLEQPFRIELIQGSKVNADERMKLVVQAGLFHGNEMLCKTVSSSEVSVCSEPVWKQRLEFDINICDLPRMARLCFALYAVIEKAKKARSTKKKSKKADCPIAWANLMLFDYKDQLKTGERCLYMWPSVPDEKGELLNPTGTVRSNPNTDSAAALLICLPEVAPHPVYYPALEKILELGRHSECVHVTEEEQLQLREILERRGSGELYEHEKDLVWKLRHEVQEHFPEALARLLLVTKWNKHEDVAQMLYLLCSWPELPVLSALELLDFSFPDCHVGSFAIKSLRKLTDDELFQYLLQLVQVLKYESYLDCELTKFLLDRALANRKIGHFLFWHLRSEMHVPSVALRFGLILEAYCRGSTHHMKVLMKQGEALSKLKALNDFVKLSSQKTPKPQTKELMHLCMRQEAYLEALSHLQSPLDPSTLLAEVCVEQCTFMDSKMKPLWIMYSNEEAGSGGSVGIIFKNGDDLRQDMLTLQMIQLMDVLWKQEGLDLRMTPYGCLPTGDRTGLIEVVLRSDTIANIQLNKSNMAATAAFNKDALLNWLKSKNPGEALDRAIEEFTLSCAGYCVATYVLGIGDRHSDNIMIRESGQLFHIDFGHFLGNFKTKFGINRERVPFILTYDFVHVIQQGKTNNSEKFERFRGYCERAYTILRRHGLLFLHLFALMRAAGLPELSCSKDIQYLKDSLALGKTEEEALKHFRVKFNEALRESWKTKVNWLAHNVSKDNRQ
Sequence of PI3K δ (P27986 whole entry partner): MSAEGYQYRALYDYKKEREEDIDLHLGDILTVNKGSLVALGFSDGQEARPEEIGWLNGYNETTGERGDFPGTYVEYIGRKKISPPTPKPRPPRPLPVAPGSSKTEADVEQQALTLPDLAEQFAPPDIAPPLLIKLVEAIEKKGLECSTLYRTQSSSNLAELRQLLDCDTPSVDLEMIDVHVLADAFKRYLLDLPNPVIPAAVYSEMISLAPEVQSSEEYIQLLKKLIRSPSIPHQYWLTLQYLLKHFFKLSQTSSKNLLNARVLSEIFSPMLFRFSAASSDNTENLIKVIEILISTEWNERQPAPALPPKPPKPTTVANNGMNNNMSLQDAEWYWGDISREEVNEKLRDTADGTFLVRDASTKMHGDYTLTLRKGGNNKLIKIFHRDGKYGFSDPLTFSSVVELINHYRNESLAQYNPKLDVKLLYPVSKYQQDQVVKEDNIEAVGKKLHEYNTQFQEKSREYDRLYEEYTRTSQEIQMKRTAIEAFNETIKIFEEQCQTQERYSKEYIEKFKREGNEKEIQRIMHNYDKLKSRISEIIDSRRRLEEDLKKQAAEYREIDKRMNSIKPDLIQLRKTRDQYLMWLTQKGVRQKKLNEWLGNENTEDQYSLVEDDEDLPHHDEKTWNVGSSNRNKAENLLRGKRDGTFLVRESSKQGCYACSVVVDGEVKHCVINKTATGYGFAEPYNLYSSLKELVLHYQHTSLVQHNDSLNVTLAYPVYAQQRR
Sequence of PI3K β (P42338 whole entry): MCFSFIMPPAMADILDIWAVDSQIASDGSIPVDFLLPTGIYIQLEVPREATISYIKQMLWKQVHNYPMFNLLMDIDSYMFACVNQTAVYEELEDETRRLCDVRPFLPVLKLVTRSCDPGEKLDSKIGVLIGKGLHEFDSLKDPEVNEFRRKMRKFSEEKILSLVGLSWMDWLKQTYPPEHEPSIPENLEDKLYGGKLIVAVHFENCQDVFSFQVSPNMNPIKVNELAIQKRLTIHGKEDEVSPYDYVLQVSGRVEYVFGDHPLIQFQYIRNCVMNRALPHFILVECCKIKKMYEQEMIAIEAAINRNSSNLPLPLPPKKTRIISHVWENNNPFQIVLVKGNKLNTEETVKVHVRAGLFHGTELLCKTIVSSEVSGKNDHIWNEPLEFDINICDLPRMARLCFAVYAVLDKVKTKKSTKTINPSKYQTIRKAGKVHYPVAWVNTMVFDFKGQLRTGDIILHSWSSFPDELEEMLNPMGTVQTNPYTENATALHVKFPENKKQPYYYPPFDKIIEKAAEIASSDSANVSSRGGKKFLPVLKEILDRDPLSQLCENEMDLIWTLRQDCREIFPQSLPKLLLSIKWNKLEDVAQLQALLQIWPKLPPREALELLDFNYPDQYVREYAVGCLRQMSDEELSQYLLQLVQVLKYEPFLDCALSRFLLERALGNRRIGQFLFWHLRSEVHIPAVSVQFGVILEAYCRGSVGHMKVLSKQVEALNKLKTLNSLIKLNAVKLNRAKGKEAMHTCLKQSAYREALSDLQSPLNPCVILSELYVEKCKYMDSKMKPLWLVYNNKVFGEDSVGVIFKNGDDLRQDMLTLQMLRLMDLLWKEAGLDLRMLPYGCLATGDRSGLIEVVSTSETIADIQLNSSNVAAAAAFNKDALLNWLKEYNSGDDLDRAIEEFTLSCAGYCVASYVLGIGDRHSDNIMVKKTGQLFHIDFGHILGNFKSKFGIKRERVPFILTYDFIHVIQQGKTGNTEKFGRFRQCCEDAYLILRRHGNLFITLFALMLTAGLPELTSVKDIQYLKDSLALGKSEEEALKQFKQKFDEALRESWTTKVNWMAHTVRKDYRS
T1 sequence (P42336 whole entry): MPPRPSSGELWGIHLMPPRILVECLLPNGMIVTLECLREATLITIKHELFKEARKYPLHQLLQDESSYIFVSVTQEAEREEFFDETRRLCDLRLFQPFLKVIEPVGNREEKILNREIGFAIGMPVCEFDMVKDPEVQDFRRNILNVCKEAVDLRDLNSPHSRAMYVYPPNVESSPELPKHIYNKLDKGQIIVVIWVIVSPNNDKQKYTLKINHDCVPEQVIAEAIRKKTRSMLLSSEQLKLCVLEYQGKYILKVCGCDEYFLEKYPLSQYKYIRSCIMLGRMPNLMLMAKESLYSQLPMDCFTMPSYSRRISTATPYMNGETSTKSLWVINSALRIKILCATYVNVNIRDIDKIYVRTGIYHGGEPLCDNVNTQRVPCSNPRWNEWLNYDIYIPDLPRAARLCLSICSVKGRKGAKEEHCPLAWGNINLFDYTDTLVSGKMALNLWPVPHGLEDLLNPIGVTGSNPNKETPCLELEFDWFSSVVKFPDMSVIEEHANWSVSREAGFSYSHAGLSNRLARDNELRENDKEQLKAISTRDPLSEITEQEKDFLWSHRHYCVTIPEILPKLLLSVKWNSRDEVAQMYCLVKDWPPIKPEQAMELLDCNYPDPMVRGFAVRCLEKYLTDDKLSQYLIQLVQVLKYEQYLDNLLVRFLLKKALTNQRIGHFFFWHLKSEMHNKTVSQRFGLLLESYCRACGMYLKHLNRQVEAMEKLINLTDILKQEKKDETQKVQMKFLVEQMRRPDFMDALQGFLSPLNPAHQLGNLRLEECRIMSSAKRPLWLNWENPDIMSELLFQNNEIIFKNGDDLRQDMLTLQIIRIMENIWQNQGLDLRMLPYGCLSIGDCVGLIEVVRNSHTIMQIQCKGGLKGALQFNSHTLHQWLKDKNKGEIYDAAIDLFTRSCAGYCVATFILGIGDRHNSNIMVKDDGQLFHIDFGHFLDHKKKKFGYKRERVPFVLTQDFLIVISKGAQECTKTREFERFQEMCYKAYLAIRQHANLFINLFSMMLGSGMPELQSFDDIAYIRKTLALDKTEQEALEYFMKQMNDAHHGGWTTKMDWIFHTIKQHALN
T1 sequence (P27986 whole entry partner): as the sequence (P27986 whole entry partner) above
T2 sequence (P48736 whole entry): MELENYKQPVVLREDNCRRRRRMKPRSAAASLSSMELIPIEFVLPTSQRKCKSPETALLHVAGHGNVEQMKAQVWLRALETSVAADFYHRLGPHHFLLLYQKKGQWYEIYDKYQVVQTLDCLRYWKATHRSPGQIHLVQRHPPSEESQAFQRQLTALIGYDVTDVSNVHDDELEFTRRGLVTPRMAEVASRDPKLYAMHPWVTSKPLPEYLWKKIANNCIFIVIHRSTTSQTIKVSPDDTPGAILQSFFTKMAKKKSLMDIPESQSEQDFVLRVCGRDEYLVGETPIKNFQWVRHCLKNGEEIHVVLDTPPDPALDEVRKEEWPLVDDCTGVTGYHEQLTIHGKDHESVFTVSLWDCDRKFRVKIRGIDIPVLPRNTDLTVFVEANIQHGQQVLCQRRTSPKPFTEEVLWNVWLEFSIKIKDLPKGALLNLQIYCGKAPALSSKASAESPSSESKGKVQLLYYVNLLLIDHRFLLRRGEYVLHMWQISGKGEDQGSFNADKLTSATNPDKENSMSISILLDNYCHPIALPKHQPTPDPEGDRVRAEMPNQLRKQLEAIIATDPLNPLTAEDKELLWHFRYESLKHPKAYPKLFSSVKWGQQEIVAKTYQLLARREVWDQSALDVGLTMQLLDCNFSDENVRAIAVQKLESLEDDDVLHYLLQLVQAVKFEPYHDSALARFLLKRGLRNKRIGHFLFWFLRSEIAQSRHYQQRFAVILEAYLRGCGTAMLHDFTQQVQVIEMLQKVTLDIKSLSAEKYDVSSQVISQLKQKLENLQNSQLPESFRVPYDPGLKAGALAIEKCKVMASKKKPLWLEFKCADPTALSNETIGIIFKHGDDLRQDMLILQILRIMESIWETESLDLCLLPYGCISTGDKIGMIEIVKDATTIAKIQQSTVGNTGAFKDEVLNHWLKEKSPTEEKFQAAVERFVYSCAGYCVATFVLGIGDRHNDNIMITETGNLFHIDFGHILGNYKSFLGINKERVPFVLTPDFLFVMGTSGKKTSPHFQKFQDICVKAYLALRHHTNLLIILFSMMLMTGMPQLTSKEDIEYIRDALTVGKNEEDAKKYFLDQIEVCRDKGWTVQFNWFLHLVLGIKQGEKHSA

Broadly, the IC50 is the point on the concentration scale where inhibition reaches its midpoint. High values mean lower potency, low ones higher potency. Turning to `Cc1cccc2cc(Cn3nc(-c4cc(O)cc(F)c4)c4c(N)ncnc43)n(-c3ccccc3Cl)c(=O)c12` [Compound 97], the IC50 was < 10 µM in assay [1], < 0.1 µM in assay [2], < 0.1 µM in assay [3] and < 1 µM in assay [4].

As to `Cc1cccc2cc([C@H](C)Nc3nc(Cl)nc4[nH]cnc34)n(C3CC3)c(=O)c12` [Compound 268], the IC50 in assay [1] is > 10 µM; in assay [2], < 0.1 µM; in assay [3], < 1 µM; in assay [4] it was < 0.1 µM.

On to `Cc1cccc2cc([C@H](C)Nc3nc(Cl)ncc3Cl)n(-c3ccccc3)c(=O)c12` [Compound 248], for which the IC50 was > 10 µM in assay [1], < 1 µM in assay [2], < 10 µM in assay [3] and > 10 µM in assay [4].

`Cc1cccc2cc(Cn3nc(I)c4c(N)ncnc43)n(C3CCCCC3)c(=O)c12` [Compound 87]: the IC50 in assay [1] is > 10 µM; in assay [2], < 1 µM; in assay [3], < 0.1 µM; in assay [4], > 10 µM.

Regarding `CC(Nc1ncnc2[nH]cnc12)c1cc2ccccc2c(=O)n1-c1ccccc1` (stereo not shown) [Compound 220], the IC50 is > 10 µM in assay [1], < 0.1 µM in assay [2], < 1 µM in assay [3] and < 10 µM in assay [4].

With `Cc1cccc2cc(Cn3nc(C(F)F)c4c(N)ncnc43)n(-c3ccccc3)c(=O)c12` [Compound 308], the IC50 was > 10 µM in assay [1], < 0.1 µM in assay [2], < 1 µM in assay [3] and < 10 µM in assay [4].

Regarding `Cc1cccc2cc([C@H](C)Nc3cc(N)nc(N)n3)n(C3CC3)c(=O)c12` [Compound 284], the IC50 in assay [1] is > 10 µM; in assay [2] it was < 10 µM; in assay [3] it was < 10 µM; in assay [4] it was > 10 µM.

As for `COC(=O)c1nn(CC2=Cc3cccc(C)c3C(=O)C2c2ccccc2C)c2ncnc(N)c12` (stereo not shown) [Compound 299], the 50% inhibitory concentration (IC50) in assay [1] is > 10 µM; in assay [2] it was < 1 µM; in assay [3], < 10 µM; in assay [4] it was > 10 µM.

Take `Cc1cccc2cc([C@H](C)Nc3nc(N)ncc3F)n(-c3ccccc3)c(=O)c12` [Compound 271]: the IC50 in assay [1] is > 10 µM; in assay [2], < 0.1 µM; in assay [3] it was < 1 µM; in assay [4], > 10 µM.

For the compound `CC(=O)Nc1nc2cc(-c3nn(Cc4cc5cccc(C)c5c(=O)n4-c4ccccc4C)c4ncnc(N)c34)ccc2s1` [Compound 274], the 50% inhibitory concentration (IC50) was > 10 µM in assay [1], < 1 µM in assay [2], < 10 µM in assay [3] and < 10 µM in assay [4].

For the compound `Cc1cccc2cc(Cn3nc(C(C)C)c4c(N)ncnc43)n(-c3ccccc3)c(=O)c12` [Compound 317], the IC50 was > 10 µM in assay [1], < 10 µM in assay [2], > 10 µM in assay [3] and > 10 µM in assay [4].

For `Cc1cccc2cc(C(C)Nc3ncnc4[nH]cnc34)n(C(C)C)c(=O)c12` (stereo not shown) [Compound 209], the IC50 in assay [1] was < 10 µM; in assay [2] it was < 0.1 µM; in assay [3] it was < 1 µM; in assay [4] it was < 10 µM.

As for `Cc1cccc2cc([C@H](C)Nc3nc(N)nc4[nH]cnc34)n(-c3ccccc3)c(=O)c12` [Compound 323], the IC50 in assay [1] was < 1 µM; in assay [2], < 0.1 µM; in assay [3] it was < 0.1 µM; in assay [4], < 0.1 µM.

For the compound `Cc1cccc2cc(Cn3nc(I)c4c(N)ncnc43)n(C3CCC3)c(=O)c12` [Compound 105], the IC50 was > 10 µM in assay [1], < 0.1 µM in assay [2], < 10 µM in assay [3] and > 10 µM in assay [4].

Consider `Cc1ccccc1-n1c(Cn2nc(-c3ccc(F)cc3)c3c(N)ncnc32)cc2cccc(C)c2c1=O` [Compound 27], for which the IC50 was > 10 µM in assay [1], < 10 µM in assay [2], < 1 µM in assay [3] and > 10 µM in assay [4].

As to `Cc1cccc2cc(Cn3nc(-c4cnn(CCO)c4)c4c(N)ncnc43)n(-c3ccccc3F)c(=O)c12` [Compound 162], the concentration for half-maximal inhibition (IC50) in assay [1] was > 10 µM; in assay [2], < 0.1 µM; in assay [3] it was < 1 µM; in assay [4], > 10 µM.

Consider `Cc1ccccc1-n1c(Cn2nc(CCC(N)=O)c3c(N)ncnc32)cc2cccc(C)c2c1=O` [Compound 175], for which the IC50 in assay [1] is > 10 µM; in assay [2], < 1 µM; in assay [3] it was < 10 µM; in assay [4], > 10 µM.

Take `COc1cc(-c2nn(Cc3cc4cccc(C)c4c(=O)n3-c3ccccc3C)c3ncnc(N)c23)ccc1Cl` [Compound 21]: the IC50 in assay [1] was > 10 µM; in assay [2], < 1 µM; in assay [3], < 0.1 µM; in assay [4], > 10 µM.

Turning to `Cc1cccc2cc([C@H](C)Nc3ncnc4[nH]nc(C#N)c34)n(-c3ccccc3)c(=O)c12` [Compound 255], the IC50 in assay [1] is < 10 µM; in assay [2] it was < 0.1 µM; in assay [3], < 0.1 µM; in assay [4], < 0.1 µM.

In the case of `Cc1cccc2cc([C@H](C)Nc3ncnc4[nH]cc(C#N)c34)n(-c3ccccc3)c(=O)c12` [Compound 264], the IC50 in assay [1] is < 1 µM; in assay [2] it was < 0.1 µM; in assay [3], < 0.1 µM; in assay [4], < 0.1 µM.

As to `Cc1cccc2cc(Cn3nc(C#N)c4c(N)ncnc43)n(-c3ccccc3F)c(=O)c12` [Compound 169], the IC50 in assay [1] is > 10 µM; in assay [2], < 0.1 µM; in assay [3] it was > 10 µM; in assay [4], > 10 µM.

For the compound `Cc1cccc2cc([C@H](C)Nc3ncnc4[nH]cc(Br)c34)n(C3CC3)c(=O)c12` [Compound 272], the IC50 in assay [1] was < 1 µM; in assay [2] it was < 0.1 µM; in assay [3] it was < 0.1 µM; in assay [4] it was < 0.1 µM.

As to `Cc1cccc2cc(Cn3nc(-c4ccc5oc(N)nc5c4)c4c(N)ncnc43)n(C3CC3)c(=O)c12` [Compound 201], the IC50 in assay [1] was < 0.1 µM; in assay [2], < 0.1 µM; in assay [3], < 0.1 µM; in assay [4], < 1 µM.

For the compound `CCc1nn(Cc2cc3cccc(C)c3c(=O)n2-c2ccccc2C)c2ncnc(N)c12` [Compound 294], the IC50 in assay [1] is > 10 µM; in assay [2] it was < 0.1 µM; in assay [3] it was < 10 µM; in assay [4], > 10 µM.

`Cc1cccc2cc([C@H](C)Nc3ncnc4[nH]cnc34)n(-c3cccc(F)c3)c(=O)c12` [Compound 290]: the IC50 in assay [1] was > 10 µM; in assay [2], < 0.1 µM; in assay [3], < 0.1 µM; in assay [4], < 1 µM.

For the compound `Cc1ccccc1-n1c(Cn2nc(/C=C/C(N)=O)c3c(N)ncnc32)cc2cccc(C)c2c1=O` [Compound 174], the IC50 in assay [1] was > 10 µM; in assay [2], < 0.1 µM; in assay [3], < 0.1 µM; in assay [4] it was < 10 µM.

With `Cc1cccc2cc(Cn3nc(C#C[C@@H](C)O)c4c(N)ncnc43)n(-c3ccccc3C(C)C)c(=O)c12` [Compound 83], the half-inhibitory concentration (IC50) is > 10 µM in assay [1], < 0.1 µM in assay [2], < 0.1 µM in assay [3] and < 10 µM in assay [4].

Turning to `Cc1cccc2cc([C@H](C)Nc3ncnc4[nH]cc(C#N)c34)n(C3CC3)c(=O)c12` [Compound 289], the half-maximal inhibitory concentration (IC50) in assay [1] is < 1 µM; in assay [2], < 0.1 µM; in assay [3], < 0.1 µM; in assay [4] it was < 0.1 µM.

In the case of `Cc1cccc2cc([C@H](C)Nc3ncnc4[nH]cc(Cl)c34)n(-c3ccccc3)c(=O)c12` [Compound 262], the 50% inhibitory concentration (IC50) in assay [1] was < 1 µM; in assay [2], < 0.1 µM; in assay [3], < 0.1 µM; in assay [4], < 0.1 µM.

For the compound `Cc1cccc2cc([C@H](C)Nc3nc(N)ncc3F)n(C3CC3)c(=O)c12` [Compound 281], the IC50 in assay [1] was > 10 µM; in assay [2], < 10 µM; in assay [3] it was > 10 µM; in assay [4] it was < 10 µM.

Consider `Cc1cccc2cc(Cn3nc(-c4cccc(O)c4)c4c(N)ncnc43)n(-c3ccccc3Cl)c(=O)c12` [Compound 96], for which the IC50 was > 10 µM in assay [1], < 0.1 µM in assay [2], < 0.1 µM in assay [3] and < 10 µM in assay [4].

For `CC(=O)Nc1nc2cc(-c3nn(Cc4cc5cccc(C)c5c(=O)n4-c4ccccc4)c4ncnc(N)c34)ccc2s1` [Compound 275], the IC50 in assay [1] is > 10 µM; in assay [2], < 1 µM; in assay [3], < 1 µM; in assay [4] it was > 10 µM.

`Cc1ccccc1-n1c(Cn2nc(C#N)c3c(N)ncnc32)cc2cccc(C)c2c1=O` [Compound 170]: the IC50 was > 10 µM in assay [1], < 0.1 µM in assay [2], < 10 µM in assay [3] and > 10 µM in assay [4].

Take `Cc1cccc2cc(Cn3nc(-c4cn[nH]c4)c4c(N)ncnc43)n(-c3ccccc3C(F)(F)F)c(=O)c12` [Compound 214]: the IC50 was > 10 µM in assay [1], < 0.1 µM in assay [2], < 1 µM in assay [3] and < 10 µM in assay [4].

Turning to `Cc1cccc2cc(Cn3nc(/C=C4/SC(=O)NC4=O)c4c(N)ncnc43)n(-c3ccccc3F)c(=O)c12` [Compound 171], the IC50 in assay [1] was < 10 µM; in assay [2] it was < 0.1 µM; in assay [3], < 0.1 µM; in assay [4] it was < 10 µM.

Consider `Cc1cccc2cc(C(C)Nc3ncnc4[nH]cnc34)n(-c3cc(F)cc(F)c3)c(=O)c12` (stereo not shown) [Compound 222], for which the IC50 in assay [1] is > 10 µM; in assay [2] it was < 0.1 µM; in assay [3], < 1 µM; in assay [4] it was > 10 µM.

`Cc1ccccc1-n1c(Cn2nc(CCC(=O)N3CCOCC3)c3c(N)ncnc32)cc2cccc(C)c2c1=O` [Compound 193]: the IC50 in assay [1] was > 10 µM; in assay [2], < 10 µM; in assay [3], > 10 µM; in assay [4], > 10 µM.
